From patent publication US20030050212A1, “Constituent of washing aid having anti-bacterial or the like component” (priority 2001, published 2003)

Experiments:
[1] = lethal test LD 50; conditions: in vivo
Text: (§1) In actual application, 1 g of MFS 350 anti-bacterial material into 1 kg of raw material can provide a satisfactory result. Of course, the concentration can be adjusted in accordance with the requirements. In experiment, Ag ions oral test LD 50 is larger than 5000 mg1 kg, lethal test LD 50 is larger than 2000 mg1 Kg, which is relatively safe. […] The preferable metallic powder is powdery particle of nanometer in size having an excellent surface ratio. That is, under the same physical condition, a reaction surface is larger; preferably the physical size is 200 nanometer, preferably in the range of 50 to 100 nanometers.

[2] = oral test LD 50; type: in vivo
Text: as §1

[3] = system: bacteria; experiment: anti-bacterial effect of Ag ions; conditions: Ag ions at 1 ppm concentration
Text: Anti-bacterial material, for example silver ions, of high concentration dispersions towards the low concentration area. By means of a physical stirring and agitating, the anti-bacterial is adsorbed onto the fabric under cleaning.

Question: For `[Ag+]` [Ag ions], which “lethal test LD 50” value [1] is on record?
Answer: Its value is > 2000 mg1 Kg.

Question: And the “oral test LD 50” value [2]?
Answer: The value was > 5000 mg1 kg.

Question: What about the anti-bacterial effect [3] of the same molecule?
Answer: Its anti-bacterial effect is “possess anti-bacterial effect”.
